US20240148821A1, “PHARMACEUTICAL USE OF CYCLIC PEPTIDE COMPOUND” (CHUGAI SEIYAKU KABUSHIKI KAISHA, priority 2021, published 2024)
Numbered stars: 1 amine (or outer) side, 2 acyl side, 3 side chain; on linkers, the order of the positions; unused ones are H or OH. Bridge positions count the residues as written; N and C are the ends. Square brackets hold non-standard residues; d marks the D form. Peptide text beside a SMILES is read from it. * marks the point of attachment. hPhe(3,5-F2-4-CF3) = N[C@@H](CCc1cc(F)c(C(F)(F)F)c(F)c1)C(=O)O; hPhe(3-Cl-4-CF3) = N[C@@H](CCc1ccc(C(F)(F)F)c(Cl)c1)C(=O)O; hPhe(3-F,4-CF3) = N[C@@H](CCc1ccc(C(F)(F)F)c(F)c1)C(=O)O; NMePhe(4-CF3) = CN[C@@H](Cc1ccc(C(F)(F)F)cc1)C(=O)O; 3Oxa8azabicyclo(3.2.1)octane = C1CC2COCC1N2*; NEtPhe(4-Me) = CCN[C@@H](Cc1ccc(C)cc1)C(=O)O; NMePhe(4-Me) = CN[C@@H](Cc1ccc(C)cc1)C(=O)O; NMedβ3hAla = C[C@H](CC(=O)[*:2])N(C)[*:1]; NMeGly(cPent) = CN[C@H](C(=O)O)C1CCCC1; Phe(3-I) = N[C@@H](Cc1cccc(I)c1)C(=O)O; NMeCha = CN[C@@H](CC1CCCCC1)C(=O)O; NMehLeu = CN[C@@H](CCC(C)C)C(=O)O; Hyp = O=C(O)[C@@H]1C[C@@H](O)CN1; NEtLeu = CCN[C@@H](CC(C)C)C(=O)O; NMeChg = CN[C@H](C(=O)O)C1CCCCC1; NMeI = CC[C@H](C)[C@H](NC)C(=O)O; NMeD = CN[C@@H](CC(=O)O)C(=O)O; CH2CONHtBu = CC(C)(C)NC(=O)C*; NMeL = CN[C@@H](CC(C)C)C(=O)O; NMeNva = CCC[C@H](NC)C(=O)O; NMeV = CN[C@H](C(=O)O)C(C)C; Azetidin(1-yl) = C1CN(*)C1; NMeS = CN[C@@H](CO)C(=O)O; Morpholide = C1CN(*)CCO1; NMeA = CN[C@@H](C)C(=O)O; NMeAib = CNC(C)(C)C(=O)O; Nle = CCCC[C@H](N)C(=O)O; Piperidide = C1CCN(*)CC1; Pyrrolidide = C1CCN(*)C1; Ac5c = NC1(C(=O)O)CCCC1; Aze = O=C(O)[C@@H]1CCN1; NBuGly = CCCCNCC(=O)O; Sar = CNCC(=O)O; Propyl = CCC*

Assays:
[1] = target: protein-protein interaction between Kras and SOS1 (biotin-tagged human Kras loaded with GDP, His-tagged human SOS1) (Homo sapiens (Human), UniProt P01116, G12D); assay: Protein-protein interaction inhibition between Kras and SOS1 (KrasG12D-SOS PPI) using AlphaScreen; assay type: biochemical; details: AlphaScreen; biotin-tagged human Kras loaded with GDP, His-tagged human SOS1; read-out: KRAS G12D-SOS PPI IC50;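 note: kras produced in E. coli, Ni-coupled donor beads and streptavidin acceptor beads, excitation 680 nm with emission detected at 520–620 nm via singlet oxygen transfer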
[2] = tested on: Human pancreatic cancer cell line AsPC-1 (G12D mutation Kras); assay: AsPC-1 cell growth inhibition (AsPC-1 CGI); assay type: cell-based; details: read-out: AsPC-1 cell growth inhibition, 50% growth inhibitory concentration (IC50 value); 96 hours, CellTiter-Glo, values classified in ranges
Procedure: Test compounds were serially dilated with dimethyl sulfoxide, and 200 nL was then dispensed to a U-bottom 96-well plate using Labcyte Echo. […] The cell suspension was dispensed to a. plate containing a test compound at 100 μL per well and incubated at 37° C. in a 5% carbon dioxide gas incubator. 96 hours later, 80 μL of CellTiter-Glo (Promega) was added to each well and fluorescence was measured.

| SMILES | IC50 [1] [nM] | IC50 [2] [nM] |
| --- | --- | --- |
| CC[C@H](C)[C@@H]1NC(=O)[C@H](CC(C)C)N(CC)C(=O)C[C@@H](C(=O)N2CCOCC2)N(C)C(=O)[C@H](C2CCCC2)N(C)C(=O)C2(CCCC2)NC(=O)[C@@H]2CCCN2C(=O)[C@H](CCc2ccc(C(F)(F)F)c(Cl)c2)NC(=O)CN(C)C(=O)[C@H](C2CCCC2)N(C)C(=O)[C@@H]2CCN2C(=O)[C@H](C)N(C)C1=O [Compound 1208] ([NEtLeu]I[NMeA][Aze][NMeGly(cPent)][Sar][hPhe(3-Cl-4-CF3)]P[Ac5c][NMeGly(cPent)][NMeD]-Morpholide; lactam N-11) | 0.69 | ≤ 20 |
| CC[C@H](C)[C@@H]1NC(=O)[C@H](CCC(C)C)N(C)C(=O)C[C@@H](C(=O)N(C)C)N(C)C(=O)[C@H]([C@@H](C)CC)N(C)C(=O)C2(CCCC2)NC(=O)[C@@H]2CCCN2C(=O)[C@H](CCc2ccc(C(F)(F)F)c(Cl)c2)NC(=O)CN(C)C(=O)[C@H](Cc2ccc(C)cc2)N(C)C(=O)[C@@H]2CCN2C(=O)[C@H](C)NC1=O [Compound 308] ([NMehLeu]IA[Aze][NMePhe(4-Me)][Sar][hPhe(3-Cl-4-CF3)]P[Ac5c][NMeI][NMeD]-NMe2; lactam N-11) | 0.93 | ≤ 20 |
| CCO[C@@H]1C[C@H]2C(=O)NC3(CCCC3)C(=O)N(C)[C@@H](C3CCCC3)C(=O)N(C)[C@H](C(=O)N3CCCC3)CC(=O)N(C)[C@@H](CC(C)C)C(=O)N[C@@H]([C@@H](C)CC)C(=O)N(C)CC(=O)N(C)CC(=O)N(C)[C@@H](CC3CCCCC3)C(=O)N(C)CC(=O)N[C@@H](CCc3ccc(C(F)(F)F)c(Cl)c3)C(=O)N2C1 [Compound 1370] ([NMeL]I[Sar][Sar][NMeCha][Sar][hPhe(3-Cl-4-CF3)][Hyp](Et)[Ac5c][NMeGly(cPent)][NMeD]-Pyrrolidide; lactam N-11) | 0.6 | ≤ 20 |
| CC[C@H](C)[C@@H]1NC(=O)[C@H](C)N(C)C(=O)C[C@@H](C(=O)N2CCCCC2)N(C)C(=O)[C@H](C(C)C)N(C)C(=O)C2(CCCC2)NC(=O)[C@H](Cc2ccc(C)cc2)N(C)C(=O)[C@H](CCc2ccc(C(F)(F)F)c(Cl)c2)NC(=O)CN(C)C(=O)[C@H](CC2CCCCC2)N(C)C(=O)CN(C)C(=O)CN(C)C1=O [Compound 346] ([NMeA]I[Sar][Sar][NMeCha][Sar][hPhe(3-Cl-4-CF3)][NMePhe(4-Me)][Ac5c][NMeV][NMeD]-Piperidide; lactam N-11) | 11 | > 500 |
| CCCC[C@@H]1NC(=O)[C@H](Cc2cccc(I)c2)NC(=O)CN(C)C(=O)[C@H](Cc2ccc(C)cc2)N(C)C(=O)[C@@H]2CCN2C(=O)[C@H](C)N(C)C(=O)[C@H]([C@@H](C)CC)NC(=O)[C@H](CC(C)C)N(C)C(=O)C[C@@H](C(=O)N2CCCCC2)N(C)C(=O)[C@H](CC(C)C)NC(=O)[C@H]2CCCN2C1=O [Compound 822] ([NMeL]I[NMeA][Aze][NMePhe(4-Me)][Sar][Phe(3-I)][Nle][dP]L[NMeD]-Piperidide; lactam N-11) | 150 | > 500 |
| CCCOC[C@H]1C(=O)N(C)CC(=O)N[C@@H](CCc2ccc(C(F)(F)F)c(Cl)c2)C(=O)N2CCC[C@H]2C(=O)NC2(CCCC2)C(=O)N(C)[C@@H](C2CCCC2)C(=O)N(C)[C@H](C(=O)N2CCCCC2)CC(=O)N(C)[C@@H](CC(C)C)C(=O)N[C@@H]([C@@H](C)CC)C(=O)N(C)[C@@H](C)C(=O)N2CC[C@H]2C(=O)N1C [Compound 415] ([NMeL]I[NMeA][Aze][NMeS](Propyl)[Sar][hPhe(3-Cl-4-CF3)]P[Ac5c][NMeGly(cPent)][NMeD]-Piperidide; lactam N-11) | 1.5 | ≤ 20 |
| CCO[C@@H]1C[C@H]2C(=O)NC3(CCCC3)C(=O)N(C)[C@@H](C3CCCC3)C(=O)N(C)[C@H](C(=O)N3CCOCC3)CC(=O)N(C)[C@@H](CC(C)C)C(=O)N[C@@H]([C@@H](C)CC)C(=O)N(C)[C@@H](C)C(=O)N3CC[C@H]3C(=O)N(C)[C@@H](CC3CCCCC3)C(=O)N(C)CC(=O)N[C@@H](CCc3cc(F)c(C(F)(F)F)c(F)c3)C(=O)N2C1 [Compound 1250] ([NMeL]I[NMeA][Aze][NMeCha][Sar][hPhe(3,5-F2-4-CF3)][Hyp](Et)[Ac5c][NMeGly(cPent)][NMeD]-Morpholide; lactam N-11) | 0.63 | ≤ 20 |
| CCCCN1CC(=O)NC2(CCCC2)C(=O)N(C)[C@@H](C2CCCCC2)C(=O)N(C)[C@H](C(=O)N2CCCCC2)CC(=O)N(C)[C@@H](CC(C)C)C(=O)N[C@@H]([C@@H](C)CC)C(=O)N(C)CC(=O)N(C)CC(=O)N(C)[C@@H](CC2CCCCC2)C(=O)N(C)CC(=O)N[C@@H](CCc2ccc(C(F)(F)F)c(Cl)c2)C1=O [Compound 848] ([NMeL]I[Sar][Sar][NMeCha][Sar][hPhe(3-Cl-4-CF3)][NBuGly][Ac5c][NMeChg][NMeD]-Piperidide; lactam N-11) | 16 | > 500 |
| CCC[C@H]1C(=O)N[C@@H]([C@@H](C)CC)C(=O)N(C)CC(=O)N(C)CC(=O)N(C)[C@@H](CC2CCCCC2)C(=O)N(C)CC(=O)N[C@@H](CCc2ccc(C(F)(F)F)c(Cl)c2)C(=O)N2C[C@H](OCC)C[C@H]2C(=O)NC2(CCCC2)C(=O)N(C)[C@@H](C2CCCCC2)C(=O)N(C)[C@H](C(=O)N2CCCC2)CC(=O)N1C [Compound 1267] ([NMeNva]I[Sar][Sar][NMeCha][Sar][hPhe(3-Cl-4-CF3)][Hyp](Et)[Ac5c][NMeChg][NMeD]-Pyrrolidide; lactam N-11) | 0.36 | ≤ 20 |
| CCO[C@@H]1C[C@H]2C(=O)NC3(CCCC3)C(=O)N(C)[C@@H]([C@@H](C)CC)C(=O)N(C)[C@H](C)CC(=O)N(C)[C@@H](CC(C)C)C(=O)N[C@@H]([C@@H](C)CC)C(=O)N(C)[C@@H](C)C(=O)N3CC[C@H]3C(=O)N(CC)[C@@H](Cc3ccc(C)cc3)C(=O)N(C)CC(=O)N[C@@H](CCc3cc(F)c(C(F)(F)F)c(F)c3)C(=O)N2C1 [Compound 33] (cyclo([Ac5c][NMeI][NMedβ3hAla][NMeL]I[NMeA][Aze][NEtPhe(4-Me)][Sar][hPhe(3,5-F2-4-CF3)][Hyp](Et))) | 6.9 | ≤ 20 |
| CC[C@H](C)[C@@H]1NC(=O)[C@H](CC(C)C)N(C)C(=O)C[C@@H](C(=O)N2CCC2)N(C)C(=O)[C@H](C2CCCC2)N(C)C(=O)C2(CCCC2)NC(=O)[C@@H]2CCCN2C(=O)[C@H](CCc2cc(F)c(C(F)(F)F)c(F)c2)NC(=O)CN(C)C(=O)[C@H](CC2CCCCC2)N(C)C(=O)[C@@H]2CCN2C(=O)[C@H](C)N(C)C1=O [Compound 1070] ([NMeL]I[NMeA][Aze][NMeCha][Sar][hPhe(3,5-F2-4-CF3)]P[Ac5c][NMeGly(cPent)][NMeD]-{Azetidin(1-yl)}; lactam N-11) | 0.91 | ≤ 20 |
| CC[C@H](C)[C@@H]1NC(=O)[C@H](CC(C)C)N(C)C(=O)C[C@@H](C(=O)N(C)C)N(C)C(=O)[C@H]([C@@H](C)CC)N(C)C(=O)[C@H](C)NC(=O)[C@@H]2CCCN2C(=O)[C@H](CCc2ccc(C(F)(F)F)c(Cl)c2)NC(=O)CN(C)C(=O)[C@H](Cc2ccc(C)cc2)N(C)C(=O)[C@@H]2CCN2C(=O)[C@H](C)N(C)C1=O [Compound 829] ([NMeL]I[NMeA][Aze][NMePhe(4-Me)][Sar][hPhe(3-Cl-4-CF3)]PA[NMeI][NMeD]-NMe2; lactam N-11) | 2.3 | > 500 |
| CC[C@H](C)[C@@H]1NC(=O)[C@H](C)N(C)C(=O)C[C@@H](C)N(C)C(=O)[C@H](CC(C)C)NC(=O)C(C)(C)N(C)C(=O)[C@H](CC(C)C)NC(=O)[C@H](CCc2ccc(C(F)(F)F)c(F)c2)NC(=O)CN(C)C(=O)[C@H](CC2CCCCC2)N(C)C(=O)CN(C)C(=O)CN(C)C1=O [Compound 842] (cyclo(I[Sar][Sar][NMeCha][Sar][hPhe(3-F,4-CF3)]L[NMeAib]L[NMedβ3hAla][NMeA])) | 43 | > 500 |
| CC[C@H](C)[C@@H]1NC(=O)[C@H](CC(C)C)N(C)C(=O)C[C@@H](C(=O)N2CCCCC2)N(C)C(=O)[C@H](C2CCCCC2)N(C)C(=O)C2(CCCC2)NC(=O)[C@H](COCC(=O)NC(C)(C)C)N(C)C(=O)[C@H](CCc2ccc(C(F)(F)F)c(Cl)c2)NC(=O)CN(C)C(=O)[C@H](CC2CCCCC2)N(C)C(=O)CN(C)C(=O)CN(C)C1=O [Compound 727] ([NMeL]I[Sar][Sar][NMeCha][Sar][hPhe(3-Cl-4-CF3)][NMeS](CH2CONHtBu)[Ac5c][NMeChg][NMeD]-Piperidide; lactam N-11) | 6.9 | > 500 |
| CC[C@H](C)[C@@H]1NC(=O)[C@H](CC(C)C)N(C)C(=O)C[C@@H](C(=O)N2C3CCC2COC3)N(C)C(=O)[C@H](C2CCCC2)N(C)C(=O)C2(CCCC2)NC(=O)[C@@H]2CCCN2C(=O)[C@H](CCc2ccc(C(F)(F)F)c(Cl)c2)NC(=O)CN(C)C(=O)[C@H](Cc2ccc(C(F)(F)F)cc2)N(C)C(=O)[C@@H]2CCN2C(=O)[C@H](C)N(C)C1=O [Compound 422] ([NMeL]I[NMeA][Aze][NMePhe(4-CF3)][Sar][hPhe(3-Cl-4-CF3)]P[Ac5c][NMeGly(cPent)][NMeD]-{3Oxa8azabicyclo(3.2.1)octane}; lactam N-11) | 0.87 | ≤ 20 |
| CCCOC[C@H]1C(=O)N(C)CC(=O)N[C@@H](CCc2ccc(C(F)(F)F)c(Cl)c2)C(=O)N2CCC[C@H]2C(=O)NC2(CCCC2)C(=O)N(C)[C@@H](C2CCCC2)C(=O)N(C)[C@H](C(=O)N2C3CCC2COC3)CC(=O)N(C)[C@@H](CC(C)C)C(=O)N[C@@H]([C@@H](C)CC)C(=O)N(C)[C@@H](C)C(=O)N2CC[C@H]2C(=O)N1C [Compound 176] ([NMeL]I[NMeA][Aze][NMeS](Propyl)[Sar][hPhe(3-Cl-4-CF3)]P[Ac5c][NMeGly(cPent)][NMeD]-{3Oxa8azabicyclo(3.2.1)octane}; lactam N-11) | 1.4 | ≤ 20 |
